The source of these data is ChEMBL document CHEMBL1201862, “PubChem BioAssay data set” (2004).

Among the test systems are ACHN; CAKI-1; HCT-116; HL-60; IGROV-1; MOLT-4; NCI-H460; NCI-H522; OVCAR-5; SF-268; SK-MEL-5; SN12C; TK-10; UACC-257; UACC-62; HCT-15; RPMI-8226.
Holding throughout (assay): NCI anticancer screen, dose series, 48 h

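A five-concentration, 48-hour dose response in 96-well plates underlies each endpoint, interpolated linearly between surrounding concentrations. GI50 = concentration required for 50% inhibition of growth.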 Calls of active or inactive are those of the source. Cut-off read from the data, not from the text of the source: active = GI50 up to about 1.1 µM and inactive = higher.

`N=C(CC(=O)Nc1ccc(Cl)cc1)Nc1ccccc1`: the GI50 in the assay with ACHN, in the assay on CAKI-1, in the assay with HCT-116, in the assay with HL-60, with IGROV-1 and with MOLT-4 was > 100 µM (inactive) each time. Besides, the GI50 in the assay with NCI-H460, in the assay on NCI-H522, with OVCAR-5, with SF-268, in the assay on SK-MEL-5 and in the assay on SN12C was > 100 µM (inactive) throughout. In addition, the GI50 in the assay on TK-10, in the assay with UACC-257 and in the assay on UACC-62 was > 100 µM (inactive) throughout.

For `O=c1c2cc(Br)cc(Br)c2nc(CCCl)n1-c1ccc(O)c([N+](=O)[O-])c1`, the GI50 is 19.7 µM (inactive) in the assay on ACHN; 14.7 µM (inactive) in the assay on HCT-116; 19 µM in the assay on HCT-15; 23.3 µM (inactive) with HL-60; 22.6 µM (inactive) in the assay on IGROV-1; 23.8 µM (inactive) with MOLT-4. The GI50 is 21 µM (inactive) in the assay on NCI-H460; 9.66 µM (inactive) in the assay with NCI-H522; 18.9 µM (inactive) in the assay with OVCAR-5; 30.2 µM (inactive) in the assay with RPMI-8226; 19.3 µM (inactive) in the assay on SF-268; 20.1 µM (inactive) in the assay on SK-MEL-5. The GI50 in the assay with SN12C was 17.6 µM (inactive); in the assay with TK-10, 18.5 µM (inactive); in the assay on UACC-257, 15.1 µM (inactive); in the assay on UACC-62, 22.5 µM (inactive).

Turning to `C/C(CC(=O)CCCC(=O)Nc1ccc(Cl)cc1Cl)=N/NC(=O)CC#N`, the GI50 with ACHN is > 100 µM (inactive); in the assay on CAKI-1, > 100 µM (inactive); in the assay with HCT-116 it was > 100 µM (inactive); in the assay with HCT-15, more than 100 µM; in the assay on HL-60, > 100 µM (inactive); in the assay on IGROV-1 it was > 100 µM (inactive). Also, the GI50 in the assay on MOLT-4, in the assay with NCI-H460, in the assay with OVCAR-5, in the assay on RPMI-8226, in the assay with SF-268 and with SK-MEL-5 was > 100 µM (inactive) in each case. Moreover, the GI50 with SN12C, in the assay with TK-10, with UACC-257 and in the assay with UACC-62 was > 100 µM (inactive) each time.

With `CCCCCCCCCCCc1nnc(N)o1`, the GI50 is > 100 µM (inactive) in the assay with ACHN; > 100 µM (inactive) with HCT-116; more than 100 µM in the assay with HCT-15; 37.2 µM (inactive) in the assay with HL-60; > 100 µM (inactive) with IGROV-1; 26.6 µM (inactive) in the assay on MOLT-4. Moreover, the GI50 in the assay with NCI-H460 was > 100 µM (inactive); in the assay on NCI-H522 it was 67 µM (inactive); in the assay with OVCAR-5 it was > 100 µM (inactive); with RPMI-8226, > 100 µM (inactive); in the assay on SF-268, 99.1 µM (inactive); in the assay with SN12C, > 100 µM (inactive). In addition, the GI50 in the assay with TK-10, in the assay with UACC-257 and in the assay on UACC-62 was > 100 µM (inactive) each time.

Regarding `COc1cc(C(=O)C/C(CCC(=O)Nc2ccccc2[N+](=O)[O-])=N\NC(=O)C(N)=O)ccc1O`, the GI50 in the assay on ACHN was > 100 µM (inactive); with CAKI-1 it was > 100 µM (inactive); in the assay on HCT-116 it was > 100 µM (inactive); in the assay with HCT-15, more than 100 µM; in the assay with HL-60, > 100 µM (inactive); in the assay with IGROV-1, > 100 µM (inactive). In addition, the GI50 in the assay on MOLT-4, in the assay on NCI-H460, in the assay on OVCAR-5, in the assay with SF-268, with TK-10 and in the assay on UACC-257 was > 100 µM (inactive) throughout. Also, the GI50 in the assay with UACC-62 is > 100 µM (inactive).

For `CC1CC#CCOC(=O)CCCC1=O` (stereo unspecified), the GI50 in the assay on HCT-116, with HL-60, with IGROV-1, in the assay on MOLT-4, in the assay on NCI-H460 and in the assay on NCI-H522 was > 100 µM (inactive) in each case. Further, the GI50 with RPMI-8226, with SF-268, in the assay with SK-MEL-5, in the assay with SN12C, with TK-10 and in the assay with UACC-62 was > 100 µM (inactive) in each case.

As to `CCn1c(=O)nc2n(-c3ccc(SC)cc3)c3ccccc3nc-2c1=O`, the GI50 with ACHN was 1.87 µM (inactive); in the assay on CAKI-1, 32.9 µM (inactive); with HCT-15, more than 100 µM; in the assay with HL-60, 35.7 µM (inactive); in the assay on IGROV-1 it was > 100 µM (inactive); in the assay with MOLT-4 it was > 100 µM (inactive). The GI50 in the assay with NCI-H460 is 20.9 µM (inactive); in the assay on NCI-H522, > 100 µM (inactive); in the assay on OVCAR-5, > 100 µM (inactive); in the assay with RPMI-8226, 71.1 µM (inactive); in the assay with SF-268 it was 79.8 µM (inactive); in the assay on SK-MEL-5 it was 9.42 µM (inactive). Also, the GI50 with SN12C was > 100 µM (inactive); with TK-10, > 100 µM (inactive); in the assay on UACC-257, > 100 µM (inactive); in the assay on UACC-62 it was 50.9 µM (inactive).

For the compound `C[N+](C)=c1[nH]c2ccccc2[nH]1`, the GI50 in the assay with ACHN is > 100 µM (inactive); in the assay with CAKI-1, > 100 µM (inactive); with HCT-15 it was more than 100 µM; with HL-60, > 100 µM (inactive); with IGROV-1 it was > 100 µM (inactive); in the assay on MOLT-4, > 100 µM (inactive). Besides, the GI50 with NCI-H460, in the assay on NCI-H522, in the assay on OVCAR-5, in the assay on RPMI-8226, in the assay on SF-268 and with SK-MEL-5 was > 100 µM (inactive) throughout. Also, the GI50 in the assay on SN12C, in the assay with TK-10, in the assay with UACC-257 and in the assay with UACC-62 was > 100 µM (inactive) in each case.

With `COP12(OC)NC(=O)OC1(C(F)(F)F)c1ccccc1O2` (stereo unspecified), the GI50 is > 100 µM (inactive) with ACHN; > 100 µM (inactive) with HCT-116; more than 100 µM in the assay on HCT-15; > 100 µM (inactive) with HL-60; > 100 µM (inactive) in the assay on IGROV-1; > 100 µM (inactive) in the assay on MOLT-4. Also, the GI50 in the assay on NCI-H460, in the assay with NCI-H522, in the assay with SF-268, with SK-MEL-5, with SN12C and with TK-10 was > 100 µM (inactive) in each case. Also, the GI50 with UACC-257 and with UACC-62 was > 100 µM (inactive) in each case.

As to `O=P1(c2ccccc2)CCCCC1`, the GI50 was > 100 µM (inactive) in the assay on ACHN; > 100 µM (inactive) in the assay on HCT-116; more than 100 µM in the assay with HCT-15; > 100 µM (inactive) with HL-60; > 100 µM (inactive) in the assay with IGROV-1; > 100 µM (inactive) in the assay on MOLT-4. Also, the GI50 is > 100 µM (inactive) with NCI-H460; > 10 µM (inactive) in the assay on NCI-H522; > 100 µM (inactive) in the assay with OVCAR-5; > 100 µM (inactive) in the assay with RPMI-8226; > 100 µM (inactive) in the assay with SK-MEL-5; > 100 µM (inactive) in the assay with SN12C. The GI50 in the assay with TK-10, with UACC-257 and with UACC-62 was > 100 µM (inactive) throughout.

As for `CC(=O)OC1(C)C(=O)OC1(C)C(C)=O` (stereo unspecified), the GI50 is > 100 µM (inactive) in the assay on ACHN; > 100 µM (inactive) with CAKI-1; > 100 µM (inactive) with HCT-116; more than 100 µM in the assay on HCT-15; > 100 µM (inactive) in the assay on HL-60; > 100 µM (inactive) in the assay on IGROV-1. Further, the GI50 with MOLT-4, with NCI-H522, in the assay on OVCAR-5, in the assay with RPMI-8226, with SF-268 and in the assay with SK-MEL-5 was > 100 µM (inactive) throughout. Also, the GI50 in the assay with SN12C, in the assay on TK-10, in the assay on UACC-257 and with UACC-62 was > 100 µM (inactive) in each case.

On to `C(=C1\CCC/C(=C/c2ccccc2)C1=NNc1ccccc1)/c1ccccc1`, for which the GI50 in the assay with ACHN is > 100 µM (inactive); in the assay on HCT-116, > 100 µM (inactive); in the assay with HCT-15, more than 100 µM; with HL-60, > 100 µM (inactive); with IGROV-1 it was > 100 µM (inactive); in the assay on MOLT-4 it was > 100 µM (inactive). Moreover, the GI50 in the assay on NCI-H460, with NCI-H522, in the assay with OVCAR-5, in the assay with RPMI-8226, in the assay with SF-268 and in the assay with SK-MEL-5 was > 100 µM (inactive) throughout. For the same compound, the GI50 in the assay on SN12C, in the assay on TK-10, in the assay with UACC-257 and in the assay on UACC-62 was > 100 µM (inactive) throughout.

For `Cc1ccc2nc3c(Cl)cc(=O)cc-3sc2c1`, the GI50 in the assay with ACHN was 23.3 µM (inactive); in the assay on CAKI-1, 27.4 µM (inactive); in the assay on HCT-116 it was 17.9 µM (inactive); with HCT-15 it was 17.5 µM; in the assay with HL-60, 5.77 µM (inactive); with IGROV-1 it was 19.4 µM (inactive). The GI50 in the assay with MOLT-4 is 10.9 µM (inactive); in the assay on NCI-H460, 29.4 µM (inactive); in the assay on NCI-H522, 16.7 µM (inactive); in the assay with OVCAR-5, > 10 µM (inactive); in the assay on SF-268, 23.6 µM (inactive); in the assay on SK-MEL-5, 17.1 µM (inactive). The GI50 with SN12C is > 10 µM (inactive); in the assay with TK-10 it was 28.1 µM (inactive); in the assay on UACC-257 it was 20.2 µM (inactive); in the assay on UACC-62, 15.9 µM (inactive).
